In patent US20020106347A1, “Cytokines and their use in treatment and/or prophylaxis of breast cancer” (priority 1995, published 2002):
pKd: −log10 of the molar value. “Also recorded” adds a separate entry of the source.

Key:
MCF-7 cells [1] = assay: Clonogenic assay in agar after monolayer culture; type: cell-based, human; settings: MCF-7, 7 days monolayer then 14 days agar
Method: FIG. 3 is a graphical representation showing clonogenicity of MCF-7M cells. Following suspension culture MCF-7M cell viability was measured by agar culture. Cells were plated in agar with the indicated concentrations of each of the growth factors. After 14 days culture colonies of cells were counted. Cell numbers reported here are the results of 3 experiments, each performed in triplicate, and are expressed according to the number of cells that went into suspension culture.
FIG. 17 is a graphical representation showing clonogenicity of MCF-7 cells after 1 week in suspension culture. Following suspension culture clonogenicity of MCF-7 cells was assayed in agar culture. Cells were plated in agar with the indicated growth factor and maintained at 37° C0 in a humidified incubator with 5% CO2 in air. After 14 days colonies of cells were counted. Results are from 9 experiments using IL-6, LIF and OSM, and 5 experiments using CNTF and IL-11. Each experiment was performed in triplicate, and colony numbers are expressed as a percentage of untreated controls.
Clonogenic potential of cells following monolayer culture was assessed in a semi-solid culture medium. Cells were cultured in triplicate in 35 mm Petri dishes containing 1 ml Iscove's modified Dulbecco's medium (IMDM) supplemented with 25% (v/v) (v/v) BCS, 0.3% (w/v) agar with final concentration of growth factor as outlined above, and with 200 cells per ml for control cultures Cultures were maintained at 37° C. in a humidified incubator with 5% (v/v) CO2 in air. After 14 days, colonies were enumerated using a dissecting microscope. A colony was defined as a clone of greater than 40 cells. All cultures were performed in triplicate.

MCF-7 cells [2] = assay: Proliferation of MCF-7 cells in monolayer (liquid) culture, viable cell count; type: cell-based, human; settings: for mean inhibition of cell proliferation: MCF-7, 7 days exposure, LIF 1000 U/ml, IL-6 100 ng/ml, OSM 10 ng/ml, IL-11 100 ng/ml, vs untreated control; for effect on cell proliferation (in words): MCF-7 / MCF-7M, up to 1 week culture
Method: FIGS. 2A, B and C are graphical representations of MCF-7M cells in liquid culture. 10^4 MCF-7M cells were cultured in 500 μl RPMI/10% bovine calf serum (BCS) (v/v) containing the indicated concentration of each of the growth factors (OSM or LIF). After 7 days culture viable cells were counted using a hemacytometer. Cell numbers reported here are the result of one experiment, each performed in triplicate.
FIG. 7 is a graphical representation showing inhibition of proliferation of MCF-7 cells by Oncostatin M (OSM). 10^4 MCF-7 cells were cultured in 500 μl RPMI/10% (v/v) BCS with the indicated concentrations of OSM. At 2, 4 and 6 days, viable cells were counted using a hemacytometer. Results are from 3 experiments, each performed in triplicate.
FIG. 8 is a graphical representation showing that MCF-7 cells are inhibited in a dose-dependent fashion by Oncostatin M (OSM). 10^4 MCF-7 cells were cultured in 500 μl RPMI/10% (v/v) BCS with the indicated concentrations of OSM. After 7 days viable cells were counted, and cell number expressed as a percentage of the corresponding untreated control value.
FIG. 16 is a graphical representation showing inhibition of MCF-7 cells after 7 days in suspension culture. 10^4MCF-7 cells were cultured in 500 μl RPMI/10% (v/v) BCS with the indicated growth factor. After 7 days viable cells were counted using a hemacytometer. Results are from 9 experiments, each performed in triplicate.
Proliferation of the cell lines was measured in monolayer culture in 24 well Costar cluster plates. Cells were plated at an initial density of 10 000 cells/ml and cultured in 500 μl RPMI-1640 supplemented with 10% (v/v) (v/v) BCS and with each growth factor as indicated (LIF, 1000 U/ml; IL-6, 100 ng/ml; OSM, 10 ng/ml; CNTF, 10 ng/ml; IL-11, 100 ng/ml). These concentrations are maximally active in other systems (Nandurkar et al., 1996; Hilton et al., 1994; Zhang et al., 1994; Tanigawa et al., 1995). After 7 or 10 days at 37° C. in a fully humidified atmosphere containing 10% (v/v) CO2 in air, cells were trypsinised and counted using a haemocytometer and an inverted microscope. Cell viability was assessed using eosin exclusion. Results were expressed as a percentage of the corresponding untreated control value for that experiment.

HBL-100 cell line = assay: Receptor binding of radioiodinated ligand to HBL-100 cells, Scatchard analysis; parameters: species or system human; settings: for specific binding(cpm)/10^6 cells: HBL-100, 125I-ligand, room temperature 60 min
Method: (§1) FIG. 20 is a graphical representation showing Scatchard analyses of the saturation isotherms of LIF and OSM binding to breast cancer cell lines. Cells were incubated with various concentrations of labelled or unlabelled ligand in the presence or absence of a 10-100 fold excess of unlabelled ligand. After 18 hr on ice, bound and free ligand were separated by centrifugation through bovine calf serum. Bound and free ^125I-ligand was quantitated in a γ-counter and the data was depicted as a Scatchard transformation. Data was normalised for cell number and is shown as binding to 10^6 cells. A) Saturation isotherm of LIF binding to the MCF-7 cell line. […] B) Saturation isotherm of OSM binding to the MDA-MB-231 cell line.
(§2) Receptor binding assays were performed using radioiodinated LIF (^125I-LIF) and OSM (^125I-OSM). The radioiodination of LIF and OSM and binding assays were essentially performed as previously described (Hilton et al., 1991; Hilton and Nicola, 1992). Briefly, 50 μl aliquots containing 1×10^7 cells, suspended in RPMI-1640 medium containing 10% (v/v) BCS, were placed in Falcon tubes with 40 μl of the respective radioiodinated ligand at 1×10^5 cpm per 40 μl, with or without greater than a 40-fold excess of unlabelled ligand. Incubation was carried out at room temperature for 60 min and cells were resuspended and layered over 180 μl of (v/v) BCS. Cell associated and free radioiodinated ligand were separated by centrifugation. The pellet and supernatant were subsequently counted in a γ-counter. Specific binding was estimated by subtraction of non specific binding from binding with ^125I-ligand (total binding). Number of cell surface receptors and dissociation constant were calculated by Scatchard analysis.

MCF-7 cell line = assay: Receptor binding of radioiodinated ligand to MCF-7 cells, Scatchard analysis; parameters: species or system human; settings: for pKd: MCF-7, Scatchard analysis, read-out: dissociation constant; for specific binding(cpm)/10^6 cells: MCF-7M, 125I-ligand, room temperature 60 min
Method: as §1, §2

Substance	effect on colony formation / clonogenic potential (in words) (MCF-7 cells [1])	mean inhibition of cell proliferation (MCF-7 cells [2]) [%]	effect on cell proliferation (in words) (MCF-7 cells [2])	specific binding(cpm)/10^6 cells (HBL-100 cell line)	pKd (HBL-100 cell line; HBL-100, Scatchard analysis, read-out: dissociation constant)	pKd (MCF-7 cell line)	specific binding(cpm)/10^6 cells (MCF-7 cell line)	inhibition of cell proliferation, up to (maximum observed) (MCF-7 cells [2]; MCF-7, 7 days exposure to OSM, 9 experiments)	reduced binding of radiolabelled ligand compared with the other cell lines (HBL-100 cell line; HBL-100 vs T-47D, MDA-MB-231, MCF-7)
Leukemia Inhibitory Factor [LIF]	significant reduction of colony formation	37	induced inhibition	590 +/− 30 cpm	11.13	10.84	350 +/− 100 cpm		
oncostatin M [OSM]	significant reduction of colony formation	85	inhibition of cell proliferation; also recorded: inhibition of cellular proliferation	140 +/− 10 cpm		8.70	1250 +/− 90 cpm	up to 94%	approximately 10 fold
